Like-named read-outs stand apart in the source and are kept apart here.
Tests used:
MK-3 = MK-3 (Homo sapiens, UniProt Q16644); assay: MK-3 inhibition IC50 (similar method to MK-2, with appropriate modifications); assay type: biochemical; conditions: read-out: MK-3 Avg. IC50
Protocol: In practice, the selectivity of a cyclic pyrazole MK-2 inhibitor varies depending upon the condition under which the test is performed and on the inhibitors being tested. However, for the purposes of this specification, the selectivity of a cyclic pyrazole MK-2 inhibitor inhibitor can be measured as a ratio of the in vitro or in vivo IC50 value for inhibition of MK-3, divided by the IC50 value for inhibition of MK-2 (IC50 MK-3/IC50 MK-2). […] The MK-2 or MK-3 inhibiting activity of any of the compounds described herein can be determined by any one of several methods that are well known to those having skill in the art of enzyme activity testing. […] A similar method, with appropriate modifications, Can be used to measure MK-3 inhibitory activity. In addition, the efficacy of one of the present MK-2 inhibiting compounds in therapeutic applications can be determined by testing for inhibition of TNFα production in cell culture and in animal model assays.

MAPKAPK2 (MK-2) = MAPKAPK2 (MK-2) (Homo sapiens, UniProt P49137); assay: Determination of MK-2 IC50 (HSP-peptide phosphorylation, anion exchange resin capture assay); assay type: biochemical
Sequence of MAPKAPK2 (MK-2) (P49137 whole entry, species assumed): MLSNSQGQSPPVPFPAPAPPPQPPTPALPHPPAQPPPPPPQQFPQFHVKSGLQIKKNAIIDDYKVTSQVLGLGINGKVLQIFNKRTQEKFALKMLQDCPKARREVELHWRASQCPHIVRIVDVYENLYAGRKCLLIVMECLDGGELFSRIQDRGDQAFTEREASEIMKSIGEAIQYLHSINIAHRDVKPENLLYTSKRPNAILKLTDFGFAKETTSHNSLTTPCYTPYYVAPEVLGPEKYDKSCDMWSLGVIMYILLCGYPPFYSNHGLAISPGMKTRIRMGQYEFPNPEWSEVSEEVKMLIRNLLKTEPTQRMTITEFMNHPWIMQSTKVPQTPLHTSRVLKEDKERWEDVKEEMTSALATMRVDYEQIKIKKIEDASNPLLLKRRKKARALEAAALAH
Method in brief: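 Radiometric peptide assay: 15 nM p38α-activated MK-2, HSP-peptide, 0.03 mM ATP with [γ33P]ATP, 2% DMSO, pH 7.5, 30° C for 30 min; unreacted ATP removed on AG 1×8 resin before counting. Six concentrations in ten-fold steps, each in triplicate, gave IC50 in μM.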

[1] = Table 2, pyrazolylpyrazole MK-2 inhibitors
[2] = Table 2, pyrazolylpyrazole MK-2 inhibitors, read-out: MK-2 Avg. IC50
[3] = Table 5, other cyclic pyrazole MK-2 inhibiting compounds
[4] = Table 5, other cyclic pyrazole MK-2 inhibiting compounds, read-out: MK-2 Avg. IC50
[5] = Table 1, phenoxypyrazole MK-2 inhibitors
[6] = Table 1, phenoxypyrazole MK-2 inhibitors, read-out: MK-2 Avg, IC50

Sequence of MK-3 (Q16644 whole entry, species assumed): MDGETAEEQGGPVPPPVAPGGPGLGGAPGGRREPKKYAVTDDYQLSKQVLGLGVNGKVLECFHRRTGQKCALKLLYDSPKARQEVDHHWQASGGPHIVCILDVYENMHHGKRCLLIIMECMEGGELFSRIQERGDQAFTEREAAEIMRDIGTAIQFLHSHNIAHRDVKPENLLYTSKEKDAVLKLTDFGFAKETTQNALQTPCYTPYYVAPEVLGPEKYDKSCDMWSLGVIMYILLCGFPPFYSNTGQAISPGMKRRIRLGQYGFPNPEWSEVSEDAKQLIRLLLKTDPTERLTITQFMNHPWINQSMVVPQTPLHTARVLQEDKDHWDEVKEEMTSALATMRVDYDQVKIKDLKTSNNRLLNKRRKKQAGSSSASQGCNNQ

Row | IC50 (MK-3; [1]) [µM] | IC50 (MAPKAPK2 (MK-2); [2]) [µM] | IC50 (MK-3; [5]) [µM] | IC50 (MAPKAPK2 (MK-2); [6]) [µM] | IC50 (MK-3) [µM] | IC50 (MAPKAPK2 (MK-2); read-out: MK-2 Avg. IC50) [µM] | SMILES | also measured
1 | 55.6 | 10.8 |  |  |  |  | C=CCSc1n[nH]c2c1-c1nn3c(c1CC2)C(=O)NCCC3 [Example 12] | 
2 |  |  |  |  |  |  | COc1ccc(/C=C/c2cc3c(cn2)CCc2c-3nn3c2C(=O)NCC3)cc1 [Example 12] | IC50 (MK-3; [3]): > 200 µM; IC50 (MAPKAPK2 (MK-2); [4]): 4.76 µM
3 |  |  | 149 | 8.11 |  |  | NCCCn1nc2c(c1C(=O)O)CCc1cc(O)c(CCC(F)(F)F)cc1-2 [Example 12] | 
4 |  |  |  |  | 0.29 | 0.0433 | NCCCn1nc2c(c1C(=O)O)CCc1cnc(-c3cccc(C(F)(F)F)c3)cc1-2 [Example 12] | 
5 |  |  | 121 | 10.5 |  |  | NCCCn1nc2c(c1C(=O)O)CCc1cc(O)c(-c3cccc(Cl)c3)cc1-2 [Example 13] | 
6 | 144 | 19.6 |  |  |  |  | O=C1NCCCn2nc3c(c21)CCc1[nH]ncc1-3 [Example 13] | 
7 |  |  |  |  | 5.34 | 0.0523 | O=C1NCCn2nc3c(c21)CCc1cnc(-n2ccnc2)cc1-3 [Example 13] | 
8 |  |  | > 200 | 10.7 |  |  | CC1Cc2c(nn(CCCN)c2C(=O)O)-c2ccc(O)cc21 (centres unmarked) [Example 14] | 
9 |  |  |  |  | 0.875 | 0.0558 | COc1cccc(-c2cc3c(cn2)CCc2c-3nn(CCCN)c2C(=O)O)c1 [Example 14] | 
10 | 137 | 20 |  |  |  |  | O=C1NCCn2nc3c(c21)CCc1[nH]ncc1-3 [Example 14] | 
11 | 134 | 22.7 |  |  |  |  | C=CCn1nc2c(c1C(=O)O)CCc1[nH]ncc1-2 [Example 15] | 
12 |  |  | 109 | 11 |  |  | NCCCn1nc2c(c1C(=O)O)CCc1cc(O)c(-c3ccc(Cl)cc3)cc1-2 [Example 15] | 
13 |  |  |  |  | 0.209 | 0.0567 | NCCCn1nc2c(c1C(=O)O)CCc1cnc(-c3ccc(C(F)(F)F)cc3)cc1-2 [Example 15] | 
14 |  |  | > 200 | 12.9 |  |  | CS(=O)(=O)c1cccc(-c2cc3c(cc2O)CCc2c-3nn(CCCN)c2C(=O)O)c1 [Example 16] | 
15 |  |  |  |  | 1.15 | 0.074 | NCCCn1nc2c(c1C(=O)O)CCc1cnc(Nc3ccccc3)cc1-2 [Example 16] | 
16 | 56 | 23.8 |  |  |  |  | O=C1NCCCn2nc3c(c21)CCc1[nH]nc(SCc2ccccc2)c1-3 [Example 16] | 
17 | 129 | 28.4 |  |  |  |  | NC(=O)c1[nH]nc2c1CCc1[nH]ncc1-2 [Example 17] | 
18 |  |  | 167 | 14.2 |  |  | NCCCn1nc2c(c1C(=O)O)CCc1cc(O)c(-c3ccc(F)c(F)c3)cc1-2 [Example 17] | 
19 |  |  |  |  | 1.73 | 0.0786 | NCCCn1nc2c(c1C(=O)O)CCc1cnc(-c3ccc(F)c(F)c3)cc1-2 [Example 17] | 
20 |  |  |  |  | 2.18 | 0.0796 | O=C(O)c1ccc(-c2ccc(CCNCCCn3nc4c(c3C(=O)O)CCc3cnccc3-4)cc2)cc1 [Example 18] | 
21 |  |  | 166 | 17.2 |  |  | NCCCn1nc2c(c1C(=O)O)CCc1cc(O)c(-c3cccc(N)c3)cc1-2 [Example 19] | 
22 | ≥ 200 | 46.5 |  |  |  |  | O=C(O)c1nn(C2CCN(C(=O)OCc3ccccc3)CC2)c2c1CCc1c-2cnn1C(c1ccccc1)(c1ccccc1)c1ccccc1 [Example 19] | 

Row | IC50 (MK-3; [1]) [µM] | IC50 (MAPKAPK2 (MK-2); [2]) [µM] | IC50 (MK-3; [5]) [µM] | IC50 (MAPKAPK2 (MK-2); [6]) [µM] | IC50 (MK-3) [µM] | IC50 (MAPKAPK2 (MK-2); read-out: MK-2 Avg. IC50) [µM] | SMILES | also measured
23 |  |  |  |  | 0.861 | 0.0867 | O=C1NCCn2nc3c(c21)CCc1cnc(-c2ccc(O)cc2)cc1-3 [Example 19] | 
24 | ≥ 200 | 55.3 |  |  |  |  | CCOC(=O)c1c2c(nn1CCCN)-c1c(SC)n[nH]c1CC2 [Example 20] | 
25 |  |  | > 200 | 17.6 |  |  | NC(=O)c1[nH]nc2c1CCc1c-2ccc(O)c1Br [Example 20] | 
26 |  |  | > 200 | 17.7 |  |  | CNc1ccc(-c2cc3c(cc2O)CCc2c-3nn(CCCN)c2C(=O)O)cc1 [Example 21] | 
27 | ≥ 200 | 60.4 |  |  |  |  | O=C(O)c1c2c(nn1C1CCNCC1)-c1cn[nH]c1CC2 [Example 21] | 
28 |  |  |  |  | 10.4 | 0.103 | O=C(O)c1c2c(nn1CCCNCCc1ccc(-c3cccc(C(F)(F)F)c3)cc1)-c1ccncc1CC2 [Example 21] | 
29 |  |  | 120 | 18.8 |  |  | CC(C)(C)c1ccc(-c2cc3c(cc2O)CCc2c-3nn(CCCN)c2C(=O)O)cc1 [Example 22] | 
30 |  |  |  |  | 0.426 | 0.112 | CC(C)(C)c1ccc(-c2cc3c(cn2)CCc2c-3nn(CCCN)c2C(=O)O)cc1 [Example 22] | 
31 | 195 | 68.3 |  |  |  |  | O=C(O)c1nn(CC(F)(F)F)c2c1CCc1c-2cnn1C(c1ccccc1)(c1ccccc1)c1ccccc1 [Example 22] | 
32 | ≥ 200 | 72.2 |  |  |  |  | NC(=O)c1nn(CCO)c2c1CCc1[nH]ncc1-2 [Example 23] | 
33 |  |  | > 200 | 18.8 |  |  | NCCCn1nc2c(c1C(=O)O)CCc1cc(O)c(-c3ccncc3)cc1-2 [Example 23] | 
34 |  |  |  |  | 2.62 | 0.126 | O=C(O)c1c2c(nn1CCCNCCc1ccc(-c3ccoc3)cc1)-c1ccncc1CC2 [Example 23] | 
35 | ≥ 200 | 78.4 |  |  |  |  | NC(=O)c1ccc(-n2nc(C(N)=O)c3c2-c2cn[nH]c2CC3)cc1 [Example 24] | 
36 |  |  | > 200 | 19.6 |  |  | O=C(O)c1[nH]nc2c1CCc1cc(O)ccc1-2 [Example 24] | 
37 |  |  |  |  | 5.85 | 0.13 | O=C(O)c1c2c(nn1CCCNCCc1ccc(-c3cccc(Cl)c3)cc1)-c1ccncc1CC2 [Example 24] | 
38 |  |  |  |  | 6.52 | 0.142 | COc1ccc(-c2cc3c(cn2)CCc2c-3nn3c2C(=O)NCCC3)cc1 [Example 25] | 
39 | 49.3 | 95.1 |  |  |  |  | C=CCn1nc(C(N)=O)c2c1-c1cn[nH]c1CC2 [Example 26] | 
40 |  |  | 135 | 22.2 |  |  | CC(C)(CCc1cc2c(cc1O)CCc1c-2nn(CCCN)c1C(=O)O)CC(=O)O [Example 26] | 
41 |  |  |  |  | 9.04 | 0.147 | O=C(O)c1c2c(nn1CCCNCCc1ccc(-c3ccc(C(F)(F)F)cc3)cc1)-c1ccncc1CC2 [Example 26] | 
42 |  |  | > 200 | 26.8 |  |  | NCCCn1nc2c(c1C(=O)O)CCc1cc(O)c(N)cc1-2 [Example 27] | 
43 | ≥ 200 | 103 |  |  |  |  | O=C(O)c1c2c(nn1CCCO)-c1cn[nH]c1CC2 [Example 27] | 
44 |  |  |  |  | 2.51 | 0.148 | O=C1NCCn2nc3c(c21)CCc1cnc(-c2cccc(O)c2)cc1-3 [Example 27] | 

Row | IC50 (MK-3; [1]) [µM] | IC50 (MAPKAPK2 (MK-2); [2]) [µM] | IC50 (MK-3; [5]) [µM] | IC50 (MAPKAPK2 (MK-2); [6]) [µM] | IC50 (MK-3) [µM] | IC50 (MAPKAPK2 (MK-2); read-out: MK-2 Avg. IC50) [µM] | SMILES | also measured
45 |  |  |  |  | 4.67 | 0.162 | NCCCn1nc2c(c1C(=O)NO)CCc1cnc(-c3cnc4ccccc4c3)cc1-2 [Example 28] | 
46 |  |  | > 200 | 28.3 |  |  | O=C(O)c1[nH]nc2c1CCc1cc(O)c(O)cc1-2 [Example 28] | 
47 | ≥ 200 | 112 |  |  |  |  | NC(=O)c1nn(-c2ccccc2)c2c1CCc1[nH]ncc1-2 [Example 29] | 
48 |  |  |  |  | 27.5 | 0.164 | O=C1NCCn2nc3c(c21)CCc1cnc(/C=C/c2ccc(O)cc2)cc1-3 [Example 29] | 
49 |  |  | 60.7 | 29.8 |  |  | NCCCn1nc2c(c1C(=O)O)CCc1cc(O)c(-c3ccccc3Cl)cc1-2 [Example 30] | 
50 | ≥ 200 | 114 |  |  |  |  | O=C(O)c1[nH]nc2c1CCc1c-2cnn1CCO [Example 30] | 
51 |  |  |  |  | 11.9 | 0.171 | O=C1NCCCn2nc3c(c21)CCc1cnc(-c2cnc4ccccc4c2)cc1-3 [Example 30] | 
52 | ≥ 200 | 114 |  |  |  |  | C=CCSc1n[nH]c2c1-c1nn(CCCN)c(C(=O)OCC)c1CC2 [Example 31] | 
53 |  |  | > 200 | 35.6 |  |  | C=CCn1nc2c(c1C(=O)O)CCc1cc(O)ccc1-2 [Example 31] | 
54 |  |  |  |  | 2.56 | 0.183 | O=C1NCCCn2nc3c(c21)CCc1cnc(-c2ccc(O)cc2)cc1-3 [Example 31] | 
55 |  |  | 115 | 37.4 |  |  | COc1cc2c(cc1-c1ccc([N+](=O)[O-])cc1)-c1nn(CCCNC(=O)OC(C)(C)C)c(C(=O)O)c1CC2 [Example 32] | 
56 | ≥ 200 | 116 |  |  |  |  | N#CCCCn1nc2c(c1C(=O)O)CCc1[nH]ncc1-2 [Example 32] | 
57 |  |  |  |  | 9.61 | 0.185 | O=C(O)c1c2c(nn1CCCNCCc1ccc(-c3ccccc3Cl)cc1)-c1ccncc1CC2 [Example 32] | 
58 |  |  |  |  | 7.22 | 0.201 | CC(C)(C)c1ccc(-c2ccc(CCNCCCn3nc4c(c3C(=O)O)CCc3cnccc3-4)cc2)cc1 [Example 33] | 
59 | 186 | 116 |  |  |  |  | CCOC(=O)c1c2c(nn1CCCN)-c1cn[nH]c1CC2 [Example 33] | 
60 |  |  | 107 | 39.2 |  |  | NC(=O)c1[nH]nc2c1CCc1cc(O)ccc1-2 [Example 33] | 
61 |  |  |  |  |  |  | NCCCn1nc2c(c1C(=O)O)CCc1cnc(/C=C/c3ccccc3)cc1-2 [Example 33] | IC50 (MK-3; [3]): 0.528 µM; IC50 (MAPKAPK2 (MK-2); [4]): 0.0329 µM
62 |  |  | > 200 | 44.4 |  |  | Cn1nc2c(c1C(=O)O)CCc1cc(O)ccc1-2 [Example 34] | 
63 | ≥ 200 | 120 |  |  |  |  | NC(=O)c1nn(Cc2ccccc2)c2c1CCc1[nH]ncc1-2 [Example 34] | 
64 |  |  |  |  |  |  | O=C(O)c1c2c(nn1CCCNCCc1ccc(Br)cc1)-c1cc(/C=C/c3ccccc3)ncc1CC2 [Example 34] | IC50 (MK-3; [3]): 2.02 µM; IC50 (MAPKAPK2 (MK-2); [4]): 0.28 µM

— patent US20040127492A1 (Pharmacia Corporation, priority 2002, published 2004)
